From the supplement of paper PMC5303821, “Major sulfonate transporter Soa1 in Saccharomyces cerevisiae and considerable substrate diversity in its fungal family” (Nature Communications, 2017)

Columns and labels:
Settings in all cases: sulfur source concentration 200 µM; S. cerevisiae S288C/BY sul1Δ sul2Δ soa1Δ with transporter ortholog inserted at SOA1 locus; sulfur-free B medium, 4% glucose, pH 6.5, sole sulfur source
[1] = test system: Saccharomyces uvarum_SOA2; test: lag phase before growth; higher = slower start of growth
Description: (§1)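 S. cerevisiae sul1Δ sul2Δ soa1Δ strains expressing 20 fungal SOA1 orthologs (or no transporter, 'soa1 del') were grown in liquid sulfur-free B medium, 4% glucose, pH 6.5 (7 mM K2HPO4). The strains were sulfur-starved for 3 days beforehand. Each sulfur compound was the sole sulfur source at 200 µM (sulfate also at 40 mM). OD600 curves of duplicate cultures were averaged and fitted (logistic / Richards, GroFit) to give maximal growth rate, maximal density and lag phase; temperature not stated.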

[2] = test system: Ogataea parapolymorpha_XP_013935289; test: as above
Description: as §1

[3] = test system: Saccharomyces cerevisiae_SOA1; test: as above
Description: as §1

[4] = test system: Aspergillus nidulans_XP_661733; test: as above
Description: as §1

[5] = test system: Metarhizium robertsii_XP_007821441; test: maximal culture density with compound as sole sulfur source (OD600); higher = better growth
Description: as §1

[6] = test system: Aspergillus nidulans_XP_660563; test: as above
Description: as §1

[7] = test system: Metarhizium robertsii_XP_007822519; test: as above
Description: as §1

[8] = test system: Aspergillus nidulans (IAM 2006)_astA; test: as above
Description: as §1

[9] = test system: Saccharomyces eubayanus_SOA1; test: as above
Description: as §1

[10] = test system: Saccharomyces uvarum_SOA2; test: as above
Description: as §1

[11] = test system: Ogataea parapolymorpha_XP_013935289; test: as above
Description: as §1

[12] = test system: Ogataea parapolymorpha_XP_013936897; test: as above
Description: as §1

[13] = test system: Saccharomyces cerevisiae_SOA1; test: as above
Description: as §1

[14] = test system: Saccharomyces eubayanus_SOA2; test: as above
Description: as §1

[15] = test system: Aspergillus nidulans_XP_660670; test: as above
Description: as §1

[16] = test system: Ogataea parapolymorpha_XP_013932458; test: as above
Description: as §1

[17] = test system: Aspergillus nidulans_CBF74694; test: as above
Description: as §1

[18] = test system: Aspergillus nidulans_CBF80346; test: as above
Description: as §1

[19] = test system: Saccharomyces uvarum_SOA1; test: as above
Description: as §1

soa1 del [20] = test: as above
Description: as §1

[21] = test system: Aspergillus nidulans_XP_661733; test: as above
Description: as §1

[22] = test system: Metarhizium robertsii_XP_007823832; test: as above
Description: as §1

[23] = test system: Aspergillus nidulans_XP_661711; test: as above
Description: as §1

[24] = test system: Aspergillus nidulans_XP_681611; test: as above
Description: as §1

[25] = test system: Metarhizium robertsii_XP_007821441; test: maximal growth rate with compound as sole sulfur source (OD600 per h); higher = better growth / uptake of the sulfur source
Description: as §1

[26] = test system: Fusarium oxysporum_ENH65823; test: as above
Description: as §1

[27] = test system: Aspergillus nidulans_XP_660563; test: as above
Description: as §1

[28] = test system: Metarhizium robertsii_XP_007822519; test: as above
Description: as §1

[29] = test system: Aspergillus nidulans (IAM 2006)_astA; test: as above
Description: as §1

[30] = test system: Saccharomyces eubayanus_SOA1; test: as above
Description: as §1

[31] = test system: Saccharomyces uvarum_SOA2; test: as above
Description: as §1

[32] = test system: Ogataea parapolymorpha_XP_013935289; test: as above
Description: as §1

[33] = test system: Ogataea parapolymorpha_XP_013936897; test: as above
Description: as §1

[34] = test system: Saccharomyces cerevisiae_SOA1; test: as above
Description: as §1

[35] = test system: Saccharomyces eubayanus_SOA2; test: as above
Description: as §1

[36] = test system: Aspergillus nidulans_XP_660670; test: as above
Description: as §1

[37] = test system: Ogataea parapolymorpha_XP_013932458; test: as above
Description: as §1

[38] = test system: Aspergillus nidulans_CBF74694; test: as above
Description: as §1

[39] = test system: Aspergillus nidulans_CBF80346; test: as above
Description: as §1

[40] = test system: Saccharomyces uvarum_SOA1; test: as above
Description: as §1

soa1 del [41] = test: as above
Description: as §1

[42] = test system: Aspergillus nidulans_XP_661733; test: as above
Description: as §1

[43] = test system: Metarhizium robertsii_XP_007823832; test: as above
Description: as §1

[44] = test system: Aspergillus nidulans_XP_661711; test: as above
Description: as §1

[45] = test system: Aspergillus nidulans_XP_681611; test: as above
Description: as §1

With O=C(O)CS(=O)(=O)O [Sulfoacetic acid] the “lag phase before growth” value [1] was 38.2 h, the “lag phase before growth” value [2] was 8.28 h and the “lag phase before growth” value [3] was 9.42 h. The “lag phase before growth” value [4] was 26.9 h, the maximal culture density [5] was 0.225 and the maximal culture density [6] was 0.308. It also gave a maximal culture density [7] of 0.282, a maximal culture density [8] of 0.731 and a maximal culture density [9] of 0.274. The maximal culture density [10] was 1.01, the maximal culture density [11] was 1.33 and the maximal culture density [12] was 0.275. The maximal culture density [13] was 1.28, the maximal culture density [14] was 0.211 and the maximal culture density [15] was 0.222. The maximal culture density [16] was 0.251, the maximal culture density [17] was 0.183 and the maximal culture density [18] was 0.223. For the same compound, the maximal culture density [19] was 0.391, the maximal culture density (soa1 del [20]) was 0.216 and the maximal culture density [21] was 0.777. It also gave a maximal culture density [22] of 0.712, a maximal culture density [23] of 0.223 and a maximal culture density [24] of 0.3. For the same compound, the maximal growth rate [25] was 0.00346, the maximal growth rate [26] was 0.00684 and the maximal growth rate [27] was 0.00621. For the same compound, the maximal growth rate [28] was 0.00308, the maximal growth rate [29] was 0.0131 and the maximal growth rate [30] was 0.0033. It also gave a maximal growth rate [31] of 0.0314, a maximal growth rate [32] of 0.0296 and a maximal growth rate [33] of 0.00474. The maximal growth rate [34] was 0.0325, the maximal growth rate [35] was 0.00305 and the maximal growth rate [36] was 0.00401. It also gave a maximal growth rate [37] of 0.00439, a maximal growth rate [38] of 0.00286 and a maximal growth rate [39] of 0.00462. For the same compound, the maximal growth rate [40] was 0.00282, the maximal growth rate (soa1 del [41]) was 0.00385 and the maximal growth rate [42] was 0.0174. For the same compound, the maximal growth rate [43] was 0.0177, the maximal growth rate [44] was 0.00399 and the maximal growth rate [45] was 0.00636.
